Results on five compounds are retold here after ChEMBL document CHEMBL1153930, “(-)-Dibromophakellin: an alpha2B adrenoceptor agonist isolated from the Australian marine sponge, Acanthella costata” (Bioorg Med Chem, 2009).

Each structure is given as a SMILES string. Calls of active or inactive are those of the source. The rule behind the calls is not given here.

Assay [1] deals with T1, Alpha-2B adrenergic receptor (Homo sapiens) (UniProt P18089).
T1 sequence (whole entry): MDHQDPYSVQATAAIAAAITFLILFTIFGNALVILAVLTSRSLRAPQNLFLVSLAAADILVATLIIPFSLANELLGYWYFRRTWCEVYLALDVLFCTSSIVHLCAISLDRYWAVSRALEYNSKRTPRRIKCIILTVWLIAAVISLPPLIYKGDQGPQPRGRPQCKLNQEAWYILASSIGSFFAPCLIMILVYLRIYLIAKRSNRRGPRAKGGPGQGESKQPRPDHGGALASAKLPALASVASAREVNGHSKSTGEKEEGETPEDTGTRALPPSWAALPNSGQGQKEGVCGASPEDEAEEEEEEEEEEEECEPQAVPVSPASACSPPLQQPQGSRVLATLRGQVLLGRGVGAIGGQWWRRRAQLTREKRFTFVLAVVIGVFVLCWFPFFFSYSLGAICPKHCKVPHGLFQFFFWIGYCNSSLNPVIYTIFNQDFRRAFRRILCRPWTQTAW
The assay is described as follows: Agonist activity at human adrenergic alpha2B receptor expressed in HEK293 cells coexpressing Gqi5 protein up to 83 uM by FLIPR assay. It is filed as functional, cell-based.

The target of assay [2] is T2, Alpha-2B adrenergic receptor (Homo sapiens, UniProt P18089).
T2 sequence (P18089 whole entry): T1 sequence (whole entry)
The assay is described as follows: Agonist activity at human adrenergic alpha2B receptor expressed in HEK293 cells coexpressing Gqi5 protein by FLIPR assay. The class given is functional, cell-based.

In the case of `NC1=N[C@]23CCCN2C(=O)c2cc(Br)c(-c4ccccc4)n2[C@@H]3N1`, in assay [1], the result was inactive.
The same measure, in the same setting: the result for `NC1=N[C@]23CCCN2C(=O)c2cccn2[C@@H]3N1` reads “inactive”; that for `NC1=N[C@]23CCCN2C(=O)c2cc(Br)cn2[C@@H]3N1`, “inactive”; that for `NC1=N[C@]23CCCN2C(=O)c2cc(-c4ccccc4)c(-c4ccccc4)n2[C@@H]3N1`, “inactive”.
By EC50 is commonly meant the midpoint of the concentration-response curve. A lower EC50 goes with higher potency in that assay. Turning to `NC1=N[C@H]2n3c(cc(Br)c3Br)C(=O)N3CCC[C@]23N1` [DIBROMOPHAKELLIN], it took 4.2 µM to reach a half-maximal effect in assay [2] (EC50).
